Assay results as given in PMC9866191, “Novel 9-Benzylaminoacridine Derivatives as Dual Inhibitors of Phosphodiesterase 5 and Topoisomerase II for the Treatment of Colon Cancer” (Molecules, 2023).

Assays:
Experiment in all cases: NCI-60 one-dose screen
Type in all cases: cell-based
786-0 = settings: Homo sapiens; 786-0, Renal Cancer panel; single dose 10^−5 M; read-out: Growth inhibition %
A498 = settings: Homo sapiens; A498, Renal Cancer panel; single dose 10^−5 M; read-out: Growth inhibition %
A549/ATCC = settings: Homo sapiens, Non-small cell lung panel, single dose 10^−5 M, read-out: Growth inhibition %
ACHN = settings: Homo sapiens, Renal Cancer panel, single dose 10^−5 M, read-out: Growth inhibition %
BT-549 = settings: Homo sapiens; BT-549, Breast Cancer panel; single dose 10^−5 M; read-out: Growth inhibition %
CAKI-1 = settings: Homo sapiens; CAKI-1, Renal Cancer panel; single dose 10^−5 M; read-out: Growth inhibition %
COLO 205 = settings: Homo sapiens; COLO 205, Colon Cancer panel; single dose 10^−5 M; read-out: Growth inhibition %
DU-145 = settings: Homo sapiens; DU-145, Prostate Cancer panel; single dose 10^−5 M; read-out: Growth inhibition %
HCC-2998 = settings: Homo sapiens; HCC-2998, Colon Cancer panel; single dose 10^−5 M; read-out: Growth inhibition %
HCT-116 = settings: Homo sapiens, read-out: Growth inhibition %
HOP-62 = settings: Homo sapiens; HOP-62, Non-small cell lung panel; single dose 10^−5 M; read-out: Growth inhibition %
K-562 = settings: Homo sapiens, K562; K-562, Leukemia panel; single dose 10^−5 M; read-out: Growth inhibition %
KM12 = settings: Homo sapiens; KM12, Colon Cancer panel; single dose 10^−5 M; read-out: Growth inhibition %
MCF7 = settings: Homo sapiens; MCF7, Breast Cancer panel; single dose 10^−5 M; read-out: Growth inhibition %
MDA-MB-468 = settings: Homo sapiens; MDA-MB-468, Breast Cancer panel; single dose 10^−5 M; read-out: Growth inhibition %
NCI-H226 = settings: Homo sapiens; NCI-H226, Non-small cell lung panel; single dose 10^−5 M; read-out: Growth inhibition %
NCI-H522 = settings: Homo sapiens; NCI-H522, Non-small cell lung panel; single dose 10^−5 M; read-out: Growth inhibition %
NCI/ADR-RES = settings: Homo sapiens, Ovarian Cancer panel, single dose 10^−5 M, read-out: Growth inhibition %
PC-3 = settings: Homo sapiens; PC-3, Prostate Cancer panel; single dose 10^−5 M; read-out: Growth inhibition %
RXF 393 = settings: Homo sapiens; RXF 393, Renal Cancer panel; single dose 10^−5 M; read-out: Growth inhibition %
SF-295 = settings: Homo sapiens; SF-295, CNS Cancer panel; single dose 10^−5 M; read-out: Growth inhibition %
SF-539 = settings: Homo sapiens; SF-539, CNS Cancer panel; single dose 10^−5 M; read-out: Growth inhibition %
SK-MEL-28 = settings: Homo sapiens; SK-MEL-28, Melanoma panel; single dose 10^−5 M; read-out: Growth inhibition %
SK-MEL-5 = settings: Homo sapiens; SK-MEL-5, Melanoma panel; single dose 10^−5 M; read-out: Growth inhibition %
SK-OV-3 = settings: Homo sapiens; SK-OV-3, Ovarian Cancer panel; single dose 10^−5 M; read-out: Growth inhibition %
SN12C = settings: Homo sapiens, Renal Cancer panel, single dose 10^−5 M, read-out: Growth inhibition %
SNB-19 = settings: Homo sapiens; SNB-19, CNS Cancer panel; single dose 10^−5 M; read-out: Growth inhibition %
SR = settings: Homo sapiens, Leukemia panel, single dose 10^−5 M, read-out: Growth inhibition %
SW-620 = settings: Homo sapiens; SW-620, Colon Cancer panel; single dose 10^−5 M; read-out: Growth inhibition %
U251 = settings: Homo sapiens, U-251; U251, CNS Cancer panel; single dose 10^−5 M; read-out: Growth inhibition %
UACC-62 = settings: Homo sapiens; UACC-62, Melanoma panel; single dose 10^−5 M; read-out: Growth inhibition %
UO-31 = settings: Homo sapiens; UO-31, Renal Cancer panel; single dose 10^−5 M; read-out: Growth inhibition %

Structure (SMILES) | inhibition at 10 µM (786-0) [%] | inhibition at 10 µM (A498) [%] | inhibition at 10 µM (A549/ATCC) [%] | inhibition at 10 µM (ACHN) [%] | inhibition at 10 µM (BT-549) [%] | inhibition at 10 µM (CAKI-1) [%] | inhibition at 10 µM (COLO 205) [%] | inhibition at 10 µM (DU-145) [%] | inhibition at 10 µM (HCC-2998) [%] | inhibition at 10 µM (HCT-116) [%] | inhibition at 10 µM (HOP-62) [%] | inhibition at 10 µM (K-562) [%] | inhibition at 10 µM (KM12) [%] | inhibition at 10 µM (MCF7) [%] | inhibition at 10 µM (MDA-MB-468) [%] | inhibition at 10 µM (NCI-H226) [%] | inhibition at 10 µM (NCI-H522) [%] | inhibition at 10 µM (NCI/ADR-RES) [%] | inhibition at 10 µM (PC-3) [%] | inhibition at 10 µM (RXF 393) [%] | also measured
COc1ccc2nc3ccccc3c(NCc3ccc(Cl)cc3)c2c1 [Compound 29, (4-Chlorobenzyl)-(2-methoxyacridin-9-yl)-amine] | 177 | 91.4 | 76.4 | 82.9 | 49.8 | 78.6 | 162 | 78.5 | 188 | 93.2 | 57.6 | 130 | 59.9 | 156 | 131 | 51.2 | 65.3 | 77.1 | 80.5 | 124 | inhibition at 10 µM (SF-295): 74.2%; inhibition at 10 µM (SF-539): 106%; inhibition at 10 µM (SK-MEL-28): 92.9%; inhibition at 10 µM (SK-MEL-5): 88.3%; inhibition at 10 µM (SK-OV-3): 36%; inhibition at 10 µM (SN12C): 77.9%; inhibition at 10 µM (SNB-19): 73.6%; inhibition at 10 µM (SR): 130%; inhibition at 10 µM (SW-620): 87.2%; inhibition at 10 µM (U251): 97.5%; inhibition at 10 µM (UACC-62): 35.2%; inhibition at 10 µM (UO-31): 98.1%
c1ccc(CCNc2c3ccccc3nc3ccccc23)cc1 [Compound 23, Acridin-9-yl-phenethyl-amine] | 61.9 | 105 | 67.3 | 78.4 | 26.4 | 69.7 | 78.8 | 62 | 58.6 | 83.5 | 44.9 | 75 | 42.6 | 87.8 | 111 | 43.7 | 60.2 | 66.5 | 64.3 | 64.7 | inhibition at 10 µM (SF-295): 65.1%; inhibition at 10 µM (SF-539): 71.9%; inhibition at 10 µM (SK-MEL-28): 32.3%; inhibition at 10 µM (SK-MEL-5): 35.3%; inhibition at 10 µM (SK-OV-3): 37.4%; inhibition at 10 µM (SN12C): 66.9%; inhibition at 10 µM (SNB-19): 60.5%; inhibition at 10 µM (SR): 79.1%; inhibition at 10 µM (SW-620): 71.7%; inhibition at 10 µM (U251): 58.9%; inhibition at 10 µM (UACC-62): 46.8%; inhibition at 10 µM (UO-31): 75.8%
Clc1ccccc1CNc1c2ccccc2nc2ccccc12 [Compound 11, Acridin-9-yl-(2-chlorobenzyl)-amine] | 75.5 | 106 | 80.8 | 87.8 | 61.9 | 74.8 | 99.5 | 68.2 | 117 | 91.9 | 59.1 | 94.7 | 78 | 100 | 128 | 61.1 | 71.5 | 76.2 | 82.9 | 85 | inhibition at 10 µM (SF-295): 78.3%; inhibition at 10 µM (SF-539): 93.8%; inhibition at 10 µM (SK-MEL-28): 49.5%; inhibition at 10 µM (SK-MEL-5): 58.2%; inhibition at 10 µM (SK-OV-3): 45.1%; inhibition at 10 µM (SN12C): 72.2%; inhibition at 10 µM (SNB-19): 74.2%; inhibition at 10 µM (SR): 99.5%; inhibition at 10 µM (SW-620): 90.4%; inhibition at 10 µM (U251): 76.8%; inhibition at 10 µM (UACC-62): 59%; inhibition at 10 µM (UO-31): 82.5%
COc1cccc(CNc2c3ccccc3nc3ccccc23)c1 [Compound 6, Acridin-9-yl-(3-methoxybenzyl)-amine] | 62.7 | 96.3 | 69.8 | 80.8 | 31.3 | 64.3 | 90.4 | 46.7 | 60.7 | 90.1 | 53.5 | 93.4 | 64.1 | 85.4 | 86.4 | 51.9 | 38.3 | 62.5 | 61.1 | 86.2 | inhibition at 10 µM (SF-295): 64%; inhibition at 10 µM (SF-539): 80.6%; inhibition at 10 µM (SK-MEL-28): 18.8%; inhibition at 10 µM (SK-MEL-5): 42.4%; inhibition at 10 µM (SK-OV-3): 45.3%; inhibition at 10 µM (SN12C): 62.1%; inhibition at 10 µM (SNB-19): 64%; inhibition at 10 µM (SR): 91.6%; inhibition at 10 µM (SW-620): 74.5%; inhibition at 10 µM (U251): 61.3%; inhibition at 10 µM (UACC-62): 36.5%; inhibition at 10 µM (UO-31): 73%
Cc1ccccc1CNc1c2ccccc2nc2ccccc12 [Compound 2, Acridin-9-yl-(2-methylbenzyl)-amine] | 75.7 | 102 | 80.3 | 88.4 | 44.1 | 74.9 | 119 | 69.4 | 83.8 | 92.1 | 71.9 | 95 | 83.1 | 93.1 | 94.2 | 68.5 | 50 | 75.2 | 74.4 | 92.2 | inhibition at 10 µM (SF-295): 70.5%; inhibition at 10 µM (SF-539): 96.7%; inhibition at 10 µM (SK-MEL-28): 41.7%; inhibition at 10 µM (SK-MEL-5): 66.1%; inhibition at 10 µM (SK-OV-3): 59.2%; inhibition at 10 µM (SN12C): 75.7%; inhibition at 10 µM (SNB-19): 72.9%; inhibition at 10 µM (SR): 97.3%; inhibition at 10 µM (SW-620): 86.2%; inhibition at 10 µM (U251): 78.7%; inhibition at 10 µM (UACC-62): 53.3%; inhibition at 10 µM (UO-31): 84.5%
